Our source for the Kp uu, Papp and solubility values is ChEMBL document CHEMBL1817540, “Design and discovery of a selective small molecule κ opioid antagonist (2-methyl-N-((2'-(pyrrolidin-1-ylsulfonyl)biphenyl-4-yl)methyl)propan-1-amine, PF-4455242)” (J Med Chem, 2011).

Data set [1] is described as follows: Penetration ratio, ratio of fAUC (0 to 4 hrs) in Sprague-Dawley rat brain to fAUC (0 to 4 hrs) in Sprague-Dawley rat plasma at […], sc. Also noted: dose 3.2 mg/kg, route subcutaneous. It counts as ADME, organism-based.
A short description of data set [2]: Permeability across dog RRCK cells. In kind it is ADME, cell-based, Canis lupus familiaris, MDCKII-LE. Conditions: MDCK, read-out: permeability.
Data set [3] can be described thus: Penetration ratio, ratio of AUC (0 to 4 hrs) in Sprague-Dawley rat CSF to AUC (0 to 4 hrs) in Sprague-Dawley rat unbound plasma at […], sc. It counts as ADME, organism-based. Also noted: dose 3.2 mg/kg, route subcutaneous. Conditions: read-out: Ratio AUC.
Data set [4] in a line: Solubility of compound at pH 5.5. Conditions: buffer. It counts as physicochemical.
Data set [5] is described as follows: Solubility of compound at pH 6.6. It counts as physicochemical. Conditions: buffer.
Data set [6] can be described thus: Permeability of the compound by PAMPA. It counts as ADME. Conditions: read-out: permeability. In general terms: PAMPA measures passive passage across an artificial lipid membrane.

≈ marks a conversion by molar mass, not a printed value. A value given as a limit tells only on which side of the number the result lay.

The term solubility denotes how much of the substance goes into solution per volume.

Turning to `CC(C)CNCc1ccc(-c2ccccc2S(=O)(=O)N2CCCC2)cc1` [PF-04455242], the Kp uu in data set [1] is 1; in data set [3] it was 1.2. In addition, the Papp in data set [2] and in data set [6] was 19 ×10⁻⁶ cm/s each time. The figures for the solubility in data set [4] and in data set [5] were greater than 8530 µg/mL and 110 µg/mL (≈ 295 µM), respectively.
